Assay in all cases: relative viability (nuclei count vs DMSO), 5 days (fraction); higher = more cells survive
Compound in the assay “IDH-C35 + Linsitinib”: Cc1ccccc1C(C(=O)NC1CCCCC1)N(C(=O)Cn1ccnc1C)c1cccc(F)c1 [IDH-C35] + C[C@]1(O)C[C@@H](c2nc(-c3ccc4ccc(-c5ccccc5)nc4c3)c3c(N)nccn32)C1 [Linsitinib] (partner 1 µM)
The gist of the method:
(§1)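 Lung cancer cell lines were pin-tool dosed in 1536-well plates on the day after seeding, with either a lone drug or a fixed anchor-drug dose plus five library-drug doses (not always all listed) in √10 steps. Nuclei were counted on 4× images after 5 days. Relative viability is the ratio of treated-well to vehicle-well nuclei counts, with each value a median of duplicate plates.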

Compound in assay [1]: CC1=C(C(=NN1)C)CC2=C(C3=C(S2)N(C(=O)N(C3=O)C)CC(C)C)C(=O)N4C[C@@H](CO4)O + CCNC(=O)c1noc(-c2cc(C(C)C)c(O)cc2O)c1-c1ccc(CN2CCOCC2)cc1 [Luminespib] (partner 0.01 µM)
The gist of the method:
as §1

Compound in the assay “IDH-C35 + Trametinib”: Cc1ccccc1C(C(=O)NC1CCCCC1)N(C(=O)Cn1ccnc1C)c1cccc(F)c1 [IDH-C35] + CC(=O)Nc1cccc(-n2c(=O)n(C3CC3)c(=O)c3c(Nc4ccc(I)cc4F)n(C)c(=O)c(C)c32)c1 [Trametinib] (partner 0.02 µM)
The gist of the method:
as §1

Compound in the assay “IDH-C35 + Decitabine”: Cc1ccccc1C(C(=O)NC1CCCCC1)N(C(=O)Cn1ccnc1C)c1cccc(F)c1 [IDH-C35] + Nc1ncn([C@H]2C[C@H](O)[C@@H](CO)O2)c(=O)n1 [Decitabine] (partner 2 µM)
The gist of the method: as §1

On to NCI-H1666, for which the relative viability in the assay with IDH-C35 + Linsitinib (first compound 0.08 µM) is 0.775; in the assay with IDH-C35 + Linsitinib (first compound 0.253 µM), 0.79; with IDH-C35 + Linsitinib (first compound 0.8 µM) it was 0.888; in the assay with IDH-C35 + Linsitinib (first compound 2.53 µM) it was 0.904; with IDH-C35 + Linsitinib (first compound 8 µM), 0.941; in assay [1] (first compound 0.0025 µM), 0.991. Further, the relative viability in assay [1] (first compound 0.007906 µM) was determined as 1; in assay [1] (first compound 0.025 µM), 1.06; in assay [1] (first compound 0.07906 µM), 1.04; in assay [1] (first compound 0.25 µM), 1.1; with IDH-C35 + Trametinib (first compound 0.08 µM), 0.813; in the assay with IDH-C35 + Trametinib (first compound 0.253 µM) it was 0.854. The relative viability in the assay with IDH-C35 + Trametinib (first compound 0.8 µM) was 0.902; with IDH-C35 + Trametinib (first compound 2.53 µM) it was 0.799; in the assay with IDH-C35 + Trametinib (first compound 8 µM), 0.876; in the assay with IDH-C35 + Decitabine (first compound 0.08 µM), 0.676; in the assay with IDH-C35 + Decitabine (first compound 0.253 µM) it was 0.801; in the assay with IDH-C35 + Decitabine (first compound 0.8 µM), 0.747. In addition, the values for the relative viability with IDH-C35 + Decitabine (first compound 2.53 µM) and in the assay with IDH-C35 + Decitabine (first compound 8 µM) were 0.606 and 0.655, respectively.
On to NCI-H1734, for which the relative viability in the assay with IDH-C35 + Linsitinib (first compound 0.08 µM) amounted to 0.891; with IDH-C35 + Linsitinib (first compound 0.253 µM), 0.862; in the assay with IDH-C35 + Linsitinib (first compound 0.8 µM), 0.839; with IDH-C35 + Linsitinib (first compound 2.53 µM), 0.772; in the assay with IDH-C35 + Linsitinib (first compound 8 µM), 0.833; in assay [1] (first compound 0.0025 µM), 0.297. The relative viability in assay [1] (first compound 0.007906 µM) is 0.184; in assay [1] (first compound 0.025 µM), 0.173; in assay [1] (first compound 0.07906 µM) it was 0.184; in assay [1] (first compound 0.25 µM) it was 0.167; with IDH-C35 + Trametinib (first compound 0.08 µM), 0.656; with IDH-C35 + Trametinib (first compound 0.253 µM) it was 0.811. Moreover, the relative viability turned out to be 0.603 in the assay with IDH-C35 + Trametinib (first compound 0.8 µM); 0.661 with IDH-C35 + Trametinib (first compound 2.53 µM); 0.616 with IDH-C35 + Trametinib (first compound 8 µM); 0.537 with IDH-C35 + Decitabine (first compound 0.08 µM); 0.524 with IDH-C35 + Decitabine (first compound 0.253 µM); 0.528 in the assay with IDH-C35 + Decitabine (first compound 0.8 µM). In addition, the relative viability with IDH-C35 + Decitabine (first compound 2.53 µM) is 0.483; in the assay with IDH-C35 + Decitabine (first compound 8 µM) it was 0.499.
For NCI-H1755, the relative viability in the assay with IDH-C35 + Linsitinib (first compound 0.08 µM) is 0.952; with IDH-C35 + Linsitinib (first compound 0.253 µM), 0.946; with IDH-C35 + Linsitinib (first compound 0.8 µM) it was 0.984; with IDH-C35 + Linsitinib (first compound 2.53 µM) it was 1.02; with IDH-C35 + Linsitinib (first compound 8 µM) it was 0.962; in assay [1] (first compound 0.0025 µM), 0.592. Moreover, the relative viability in assay [1] (first compound 0.007906 µM) stood at 0.511; in assay [1] (first compound 0.025 µM) it was 0.524; in assay [1] (first compound 0.07906 µM), 0.356; in assay [1] (first compound 0.25 µM), 0.438; with IDH-C35 + Trametinib (first compound 0.08 µM) it was 0.754; with IDH-C35 + Trametinib (first compound 0.253 µM) it was 0.735. The relative viability stood at 0.762 with IDH-C35 + Trametinib (first compound 0.8 µM); 0.73 with IDH-C35 + Trametinib (first compound 2.53 µM); 0.675 in the assay with IDH-C35 + Trametinib (first compound 8 µM); 0.685 in the assay with IDH-C35 + Decitabine (first compound 0.08 µM); 0.639 in the assay with IDH-C35 + Decitabine (first compound 0.253 µM); 0.757 in the assay with IDH-C35 + Decitabine (first compound 0.8 µM). In addition, the relative viability in the assay with IDH-C35 + Decitabine (first compound 2.53 µM) and with IDH-C35 + Decitabine (first compound 8 µM) was 0.708 in each case.
Take NCI-H1792: the relative viability in the assay with IDH-C35 + Linsitinib (first compound 0.08 µM) was 0.522; in the assay with IDH-C35 + Linsitinib (first compound 0.253 µM), 0.508; with IDH-C35 + Linsitinib (first compound 0.8 µM), 0.486; with IDH-C35 + Linsitinib (first compound 2.53 µM) it was 0.555; with IDH-C35 + Linsitinib (first compound 8 µM), 0.66; in assay [1] (first compound 0.0025 µM), 0.458. The relative viability in assay [1] (first compound 0.007906 µM) stood at 0.488; in assay [1] (first compound 0.025 µM) it was 0.416; in assay [1] (first compound 0.07906 µM) it was 0.338; in assay [1] (first compound 0.25 µM), 0.379; with IDH-C35 + Trametinib (first compound 0.08 µM), 0.393; in the assay with IDH-C35 + Trametinib (first compound 0.253 µM) it was 0.338. Moreover, the relative viability in the assay with IDH-C35 + Trametinib (first compound 0.8 µM) is 0.485; in the assay with IDH-C35 + Trametinib (first compound 2.53 µM), 0.405; in the assay with IDH-C35 + Trametinib (first compound 8 µM), 0.544; with IDH-C35 + Decitabine (first compound 0.08 µM) it was 0.45; with IDH-C35 + Decitabine (first compound 0.253 µM), 0.48; with IDH-C35 + Decitabine (first compound 0.8 µM), 0.476. In addition, the results for the relative viability with IDH-C35 + Decitabine (first compound 2.53 µM) and in the assay with IDH-C35 + Decitabine (first compound 8 µM) were 0.539 and 0.533, respectively.

These data come from the supplement of paper PMC10307832.
